Measurements reported in PubChem BioAssay AID1259407 (Chemical Carcinogenesis Research Information System (CCRIS), 2018).
Calls of active or inactive are those of the source. No rule for the calls is given here.

Tested on: CCRIS mutagenicity, Ames/micronucleus/aberration tests
Test: CCRIS mutagenicity studies
[1] = Test System: AMES SALMONELLA TYPHIMURIUM, Strain/Indicator: TA98, Metabolic Activation: NONE, Method: PREINCUBATION
[2] = Test System: AMES SALMONELLA TYPHIMURIUM, Strain/Indicator: TA98, Metabolic Activation: RAT, LIVER, S-9, AROCLOR 1254, Method: PREINCUBATION
[3] = Test System: AMES SALMONELLA TYPHIMURIUM, Strain/Indicator: TA100, Metabolic Activation: NONE, Method: PREINCUBATION
[4] = Test System: AMES SALMONELLA TYPHIMURIUM, Strain/Indicator: TA100, Metabolic Activation: RAT, LIVER, S-9, AROCLOR 1254, Method: PREINCUBATION
[5] = Test System: AMES SALMONELLA TYPHIMURIUM, Strain/Indicator: TA98, Metabolic Activation: NONE, Method: STANDARD PLATE
[6] = Test System: AMES SALMONELLA TYPHIMURIUM, Strain/Indicator: TA100, Metabolic Activation: NONE, Method: STANDARD PLATE
[7] = Test System: AMES SALMONELLA TYPHIMURIUM, Strain/Indicator: TA97, Metabolic Activation: NONE, Method: STANDARD PLATE
[8] = Test System: AMES SALMONELLA TYPHIMURIUM, Strain/Indicator: TA98, Metabolic Activation: RAT, LIVER, S-9, AROCLOR 1254, Method: STANDARD PLATE
[9] = Test System: AMES SALMONELLA TYPHIMURIUM, Strain/Indicator: TA100, Metabolic Activation: RAT, LIVER, S-9, AROCLOR 1254, Method: STANDARD PLATE
[10] = Test System: AMES SALMONELLA TYPHIMURIUM, Strain/Indicator: TA102, Metabolic Activation: NONE, Method: STANDARD PLATE
[11] = Test System: AMES SALMONELLA TYPHIMURIUM, Strain/Indicator: TA102, Metabolic Activation: RAT, LIVER, S-9, AROCLOR 1254, Method: STANDARD PLATE
[12] = Test System: AMES SALMONELLA TYPHIMURIUM, Strain/Indicator: TA1537, Metabolic Activation: NONE, Method: STANDARD PLATE

For `Cc1cc(=O)oc2cc(O)cc(O)c12`, the mutagenic call (Test System: AMES SALMONELLA TYPHIMURIUM, Strain/Indicator: TA98, Metabolic Activation: HAMSTER, LIVER, S-9, AROCLOR 1254, Method: PREINCUBATION) was “inactive; negative”, the mutagenic call [1] was “inactive; negative” and the mutagenic call [2] was “inactive; negative”. For the same compound, the mutagenic call (Test System: AMES SALMONELLA TYPHIMURIUM, Strain/Indicator: TA100, Metabolic Activation: HAMSTER, LIVER, S-9, AROCLOR 1254, Method: PREINCUBATION) was “inactive; negative”, the mutagenic call [3] was “inactive; negative” and the mutagenic call [4] was “inactive; negative”. For the same compound, the mutagenic call (Test System: AMES SALMONELLA TYPHIMURIUM, Strain/Indicator: TA1535, Metabolic Activation: HAMSTER, LIVER, S-9, AROCLOR 1254, Method: PREINCUBATION) was “inactive; negative”, the mutagenic call (Test System: AMES SALMONELLA TYPHIMURIUM, Strain/Indicator: TA1535, Metabolic Activation: NONE, Method: PREINCUBATION) was “inactive; negative” and the mutagenic call (Test System: AMES SALMONELLA TYPHIMURIUM, Strain/Indicator: TA1535, Metabolic Activation: RAT, LIVER, S-9, AROCLOR 1254, Method: PREINCUBATION) was “inactive; negative”. The mutagenic call (Test System: AMES SALMONELLA TYPHIMURIUM, Strain/Indicator: TA1537, Metabolic Activation: HAMSTER, LIVER, S-9, AROCLOR 1254, Method: PREINCUBATION) was “inactive; negative”, the mutagenic call (Test System: AMES SALMONELLA TYPHIMURIUM, Strain/Indicator: TA1537, Metabolic Activation: NONE, Method: PREINCUBATION) was “inactive; negative” and the mutagenic call (Test System: AMES SALMONELLA TYPHIMURIUM, Strain/Indicator: TA1537, Metabolic Activation: RAT, LIVER, S-9, AROCLOR 1254, Method: PREINCUBATION) was “inactive; negative”.
In the case of `CC(=O)Nc1ccc(Oc2ccc(NC(C)=O)cc2)cc1`, the mutagenic call [5] is reported as “inactive; negative”, the mutagenic call (Test System: AMES SALMONELLA TYPHIMURIUM, Strain/Indicator: TA98, Metabolic Activation: RAT, LIVER, S-9, PCB, Method: STANDARD PLATE) is reported as “inactive; negative” and the mutagenic call [6] is reported as “inactive; negative”. The mutagenic call (Test System: AMES SALMONELLA TYPHIMURIUM, Strain/Indicator: TA100, Metabolic Activation: RAT, LIVER, S-9, PCB, Method: STANDARD PLATE) was “inactive; negative”.
In the case of `COC(=O)COc1ccc(Cl)cc1Cl`, the mutagenic call [7] is reported as “inactive; negative”, the mutagenic call (Test System: AMES SALMONELLA TYPHIMURIUM, Strain/Indicator: TA97, Metabolic Activation: RAT, LIVER, S-9, AROCLOR 1254, Method: STANDARD PLATE) is reported as “inactive; negative” and the mutagenic call [5] is reported as “inactive; negative”. For the same compound, the mutagenic call [8] was “inactive; negative”, the mutagenic call [6] was “inactive; negative” and the mutagenic call [9] was “inactive; negative”. For the same compound, the mutagenic call [10] was “inactive; negative” and the mutagenic call [11] was “inactive; negative”.
`CC12OOC1(C)c1c(ccc3ccccc13)O2` (stereo not drawn) was tested, and the mutagenic call [3] was “inactive; negative”.
With `CCN(CC)C(=S)SSC[C@H](NC(C)=O)C(=O)O` the mutagenic call [1] was “inactive; negative”, the mutagenic call [5] was “inactive; negative” and the mutagenic call [2] was “inactive; negative”. For the same compound, the mutagenic call [8] was “inactive; negative”, the mutagenic call [3] was “inactive; negative” and the mutagenic call [6] was “inactive; negative”. For the same compound, the mutagenic call [4] was “inactive; negative” and the mutagenic call [9] was “inactive; negative”.
For `CC[C@@]1(O)C[C@H](O[C@H]2C[C@H](N(C)C)[C@H](O[C@H]3C[C@H](O)[C@H](O[C@H]4CCC(=O)[C@H](C)O4)[C@H](C)O3)[C@H](C)O2)c2c(cc3c(c2O)C(=O)c2c(O)cccc2C3=O)[C@H]1C(=O)OC`, the mutagenic call [7] was “inactive; negative”, the mutagenic call [5] was “inactive; negative” and the mutagenic call [8] was “inactive; negative”. The mutagenic call [6] was “inactive; negative”, the mutagenic call (Test System: AMES SALMONELLA TYPHIMURIUM, Strain/Indicator: TA104, Metabolic Activation: NONE, Method: STANDARD PLATE) was “active; positive” and the mutagenic call [12] was “inactive; negative”. For the same compound, the mutagenic call (Test System: AMES SALMONELLA TYPHIMURIUM, Strain/Indicator: TA1538, Metabolic Activation: NONE, Method: STANDARD PLATE) was “inactive; negative”, the mutagenic call (Test System: AMES SALMONELLA TYPHIMURIUM, Strain/Indicator: TA2637, Metabolic Activation: NONE, Method: STANDARD PLATE) was “active; positive” and the mutagenic call (Test System: E. COLI, Strain/Indicator: WP2 (HCR), Metabolic Activation: NONE, Method: STANDARD PLATE) was “inactive; negative”.
`C=C(Cl)C=O` was tested, and the mutagenic call (Test System: AMES SALMONELLA TYPHIMURIUM, Strain/Indicator: TA100, Metabolic Activation: NONE, Method: LIQUID INCUBATION) was “active; positive”, the mutagenic call (Test System: AMES SALMONELLA TYPHIMURIUM, Strain/Indicator: TA100, Metabolic Activation: NONE, Method: PREINCUBATION, LIQUID INCUBATION) was “active; positive” and the mutagenic call (Test System: AMES SALMONELLA TYPHIMURIUM, Strain/Indicator: TA1535, Metabolic Activation: NONE, Method: LIQUID INCUBATION) was “active; positive”. The mutagenic call (Test System: AMES SALMONELLA TYPHIMURIUM, Strain/Indicator: TA1535, Metabolic Activation: NONE, Method: PREINCUBATION, LIQUID INCUBATION) was “active; positive”.
For `CN1CCN(c2c(F)cc3c(=O)c(C(=O)O)cn4c3c2OCN4C)CC1`, the mutagenic call [10] was “active; positive” and the mutagenic call (Test System: CHINESE HAMSTER V-79, Strain/Indicator: V-79 (HPRT)/6-THIOGUANINE, Metabolic Activation: RAT, LIVER, S-9, AROCLOR 1254) was “active; positive”.
`CCN(CC)c1ccc(N=Nc2c(Cl)cc([N+](=O)[O-])cc2[N+](=O)[O-])cc1` was tested, and the mutagenic call [5] was “inactive; negative”, the mutagenic call [8] was “active; positive” and the mutagenic call [6] was “active; positive”. The mutagenic call [9] was “active; positive”, the mutagenic call [10] was “inactive; negative” and the mutagenic call [11] was “active; positive”. The mutagenic call (Test System: AMES SALMONELLA TYPHIMURIUM, Strain/Indicator: TA1535, Metabolic Activation: NONE, Method: STANDARD PLATE) was “inactive; negative”, the mutagenic call (Test System: AMES SALMONELLA TYPHIMURIUM, Strain/Indicator: TA1535, Metabolic Activation: RAT, LIVER, S-9, AROCLOR 1254, Method: STANDARD PLATE) was “active; positive” and the mutagenic call [12] was “inactive; negative”. For the same compound, the mutagenic call (Test System: AMES SALMONELLA TYPHIMURIUM, Strain/Indicator: TA1537, Metabolic Activation: RAT, LIVER, S-9, AROCLOR 1254, Method: STANDARD PLATE) was “active; positive”, the mutagenic call (Test System: CHINESE HAMSTER V-79, Strain/Indicator: V-79 (HGPRT)/6-THIOGUANINE, Metabolic Activation: NONE) was “inactive; negative” and the mutagenic call (Test System: CHINESE HAMSTER V-79, Strain/Indicator: V-79 (HGPRT)/6-THIOGUANINE, Metabolic Activation: RAT, LIVER, S-9, AROCLOR 1254) was “inactive; negative”. The mutagenic call (Test System: CHINESE HAMSTER V-79, Strain/Indicator: V-79/8-AZAGUANINE, Metabolic Activation: RAT, LIVER, S-9, AROCLOR 1254) was “inactive; negative”, the mutagenic call (Test System: CHINESE HAMSTER V-79, Strain/Indicator: V-79/8-AZAQUANINE, Metabolic Activation: NONE) was “inactive; negative” and the mutagenic call (Test System: UDS RAT HEPATOCYTES, Strain/Indicator: THY INCORP, Metabolic Activation: NONE, Method: AUTORADIOGRAPHY) was “inactive; negative”.
